Source: patent US20240374580A1, “SMALL MOLECULE INHIBITORS OF AUTOPHAGY AND HISTONE DEACTYLASES AND USES THEREOF” (priority 2021, published 2024)
Read-outs that look alike come from different tables or passages of the source.

What was measured:
[1] = Method: FIG. 13. […] Mice were treated with vehicle, ROC-325, or HCQ as indicated daily for 42 consecutive days. […] Mean±SD.
(§1) The majority of lysosomal proteases that control the autophagy-mediated degradation of proteins and organelles require a strict acidic pH microenvironment for their enzymatic activity. Based on this, lysosomal acidity is commonly used as a marker of autophagy status. We treated leukemia cells with ROC-325 and used LysoSensor Green to evaluate the effects of drug treatment on lysosomal pH.

clinical = details: human, in vivo
[2] = Phase I clinical trial of HCQ with vorinostat, pharmacokinetic analyses; details: humans
autophagy [3] = assay: Initial preclinical studies of potency against HCQ; details: greater than HCQ
Source text: (§2) Example data from our published studies are shown here.

MV4-11 cells = assay: Transmission electron microscopy of autophagosomes; format: cell-based; details: 1 μM
Method: FIG. 11. ROC-325 triggers the formation of autophagosomes with undegraded cargo. MV4-11 cells were treated with 1 μM ROC-325 as indicated and visualized by transmission electron microscopy (TEM).
as §2

leukemia cells = assay: LysoSensor Green lysosomal pH (confocal microscopy, FACS); format: cell-based; details: 1 μM, 6 h
Method: FIG. 12. Treatment with ROC-325 leads to lysosomal deacidification. Cells were treated with 1 μM ROC-325 for 6 h, stained with Lysosensor Green and propidium iodide (PI, nuclear counterstain) and then visualized by confocal microscopy.
as §2

autophagy [4] = assay: Autophagy markers LC3B and p62 after ROC-325; format: cell-based
Source text: as §2

[5] = system: normal human CD34+ bone marrow (BM) cells
Source text: as §1

[6] = system: renal proximal tubal endothelial cells (RPTEC)
Source text: as §1

MCT-injected rats = assay: RVP/RVSP in control and MCT-injected rats; format: in vivo, rat; details: 10 mg/kg daily for 4w
Method: (§3) FIG. 14A-E. ROC-325 has promising therapeutic activity in models of PH. A-C: in vivo intact animal experiments (ROC-325 was administered daily at 10 mg/kg for 4w). (A) Representative record showing right ventricular pressure (RVP) in control and ROC-treated rats during normoxia. […] (B) Representative record showing right ventricular pressure (RVP) in control rats, MCT-injected rats and MCT-injected rats treated with ROC. (C) Summarized data showing right ventricular systolic pressure (RVSP), a surrogate measure for pulmonary arterial systolic pressure ([…]), in control, MCT-rats (treated with vehicle) and MCT-rats treated with ROC. […] D-E: ex vivo experiment using isolated perfused/ventilated mouse lungs (ROC was applied via intrapulmonary perfusion for 5 min). (D) Representative record showing pulmonary arterial pressure (PAP) in isolated perfused/ventilated mouse lung before, during and after intrapulmonary arterial perfusion of 40 mM K+ (40K) in the absence or presence of ROC. (E) Summarized data showing 40K-induced increases in PAP before (control), during (ROC) and after (washout) application of ROC.
(§4) Finally, we tested the therapeutic benefit of ROC-325 in models of experimental PH (FIG. 14). ROC-325 was administered to rats daily at 10 mg/kg for 4w under normoxic and hypoxic conditions. […]

[7] = system: isolated perfused/ventilated mouse lungs; assay: PAP in isolated perfused/ventilated mouse lungs (ROC-325); details: intrapulmonary perfusion for 5 min, 40 mM K+
Method: as §3, §4

[8] = Oral availability of ROC-325; details: in vivo
Source text: as §2

[9] = system: broad range of tumor types; details: cited from earlier work
rings of rat PA = system: rings of rat PA
Method: Due to the key role of autophagy in the pathogenesis of many diseases, we (the inventors) were very interested in exploring the benefit of autophagy inhibition for other indications beyond cancer. […] Such experiments first quantified the vasorelaxant effect on rings of rat PA (FIG. 2). […] Similarly. […] Additionally. […] Rats were given a subcutaneous (s.c.) injection of 20 mg/kg SU5416 or vehicle, followed by hypoxia (SuHx) for 3 weeks (10% 02) and normoxia for an additional 2 weeks to elicit severe PH. […] The normoxic control group was exposed to room air only (21% 02) for a total of 5 weeks (Nor).

human PASMC [10] = assay: Ca2+ dynamics and whole-cell Ca2+ currents in PASMC; format: cell-based
Method: (B) Summarized data showing the amplitude of increase in [Ca2+]cyt induced by application of 10 μM CPA in the absence (first peak) or presence (second peak) of 1.8 mM extracellular Ca2+ (n=44-54 PASMC). […] (D) Summarized data showing [Ca2+]cyt before (basal) and during (ATP) application of ATP in control and CHQ-treated PASMC. Means±SEM, *P<0.05. (E) Summarized data showing ATP-induced increases in [Ca2+]cyt in control and CHQ-treated PASMC. means±SEM *P<0.05. […] Means±SEM, *P<0.05. (G) The current-voltage (I-V) relationship curves constructed from current recordings in PASMC before (Cont), during (CHQ) and after (wash) application of CHQ.
(§5) Similarly. […] Additionally.

[11] = system: isolated perfused and ventilated lungs; assay: PAP in isolated perfused and ventilated lungs (CHQ); details: 200 μM, intrapulmonary application
Method: FIG. 5A-C. […] (A) Left, PAP in isolated perfused and ventilated lungs before, during and after repeated pulmonary arterial perfusion of 40 mM K+ (40K) solution.
as §5

human PASMC [12] = assay: Autophagy markers P62 and LC3B in PASMC (Western blot, immunofluorescence); format: cell-based; details: 20 μM, 24 h
Source text: as §5

HPH in rats = assay: Development of HPH in rats (hypoxia 10% O2 for 21 days); format: in vivo, rat; details: 50 mg/kg/day, hypoxia 21 days
Source text: (E) Representative H&E images of small PAs in Nor, Nor+CHQ, Hyp and Hyp+CHQ rats.
as §5

SuHx-PH rat model = assay: Established PH in the SuHx rat model; format: in vivo; details: 50 mg/kg/day for 2 weeks after 3 weeks SuHx
Source text: FIG. 9A-C. […] (A) Representative right ventricular pressure (RVP).
as §5

For `CCN(CCO)CCCC(C)Nc1ccnc2cc(Cl)ccc12` (stereo not drawn) [HCQ, hydroxychloroquine], the mouse body weight ([1]; mouse, in vivo) was “No significant loss of mouse body weight”, the Cmax (clinical) was under 3000 nM and the “maximum tolerated dose (MTD)” value [2] was 600 mg/day.

For `Cc1ccc(NCCN(C)CCNc2ccnc3cc(Cl)ccc23)c2c(=O)c3ccccc3sc12` [ROC-325], the “potency relative to HCQ” value (autophagy [3]) was “approximately 10 fold”, the “autophagosomes with undegraded cargo (TEM)” value (MV4-11 cells) was “triggered the accumulation of autophagosomes with undegraded cargo” and the “lysosomal pH (LysoSensor Green fluorescence)” value (leukemia cells) was “stimulated lysosomal deacidification”. The “autophagy marker LC3B” value (autophagy [4]) was “stimulated the autophagy marker LC3B”, the p62 (autophagy [4]) was “accumulation of p62” and the therapeutic selectivity [5] was “strong therapeutic selectivity”. The therapeutic selectivity [6] was “strong therapeutic selectivity”, the mouse body weight ([1]; daily for 42 consecutive days) was “No significant loss of mouse body weight” and the tolerability ([1]; oral, daily, 42 days, mice) was “confirmed its tolerability”. The “basal hemodynamics (RVP) in control rats” value (MCT-injected rats) was “no effect on basal hemodynamics”, the “development of experimental PH (RVSP)” value (MCT-injected rats; MCT-injected rats) was “significantly inhibited the development of experimental PH” and the “high K+-induced pulmonary vasoconstriction (PAP)” value [7] was “acutely inhibits high K+-induced pulmonary vasoconstriction”. The oral bioavailability [8] was “orally bioavailable”, the “single agent anticancer activity compared to HCQ” value ([9]; broad range of tumor types) was “significantly superior single agent anticancer activity” and the “dose needed to inhibit autophagy compared to HCQ” value [9] was “inhibits autophagy at significantly lower doses”.

With `CCN(CC)CCCC(C)Nc1ccnc2cc(Cl)ccc12` (stereo not drawn) [CHQ, chloroquine] the “role of the endothelium in the vasorelaxant effect” value (rings of rat PA; 200 μM, endothelium-intact or endothelium-denuded rings pre-constricted with 1 μM PE) was “endothelium independent”, the “effect of K+ channel blockade on pulmonary vasodilation” value (rings of rat PA; 200 μM, rings pretreated with paxilline, TEA or ChTX) was “does not affect the ability of CHQ to induce pulmonary vasodilation” and the “isometric tension in isolated PA rings” value (rings of rat PA; rings constricted with 1 μM phenylephrine (PE)) was “decreased isometric tension”. For the same molecule, the “store-operated Ca2+ entry” value (human PASMC [10]; 200 μM, 10 μM CPA) was “inhibits store-operated Ca2+ entry”, the “whole-cell Ca2+ currents” value (human PASMC [10]; test pulse of +10 mV from −70 mV) was “reduces whole-cell Ca2+ currents” and the “40K-induced increases in PAP” value [11] was “could antagonize the 40K-induced increases in PAP”. The “pulmonary vasoconstriction induced by high K+ or hypoxia” value [11] was “attenuates pulmonary vasoconstriction induced by high K+ concentrations or hypoxia”, the “autophagy (p62 and LC3B)” value (human PASMC [12]) was “inhibited autophagy” and the PA wall thickness (HPH in rats) was “reduced PA wall thickness”. For the same molecule, the “right ventricular systolic pressure (RVSP)” value (HPH in rats) was “significantly reduced RVSP”, the “progression of established PH” value (SuHx-PH rat model) was “significant therapeutic benefit against established PH progression” and the “reversal of established PH” value (SuHx-PH rat model) was “partially reversed established PH”.
